{"source": "patent US12110283B2", "about": "“Carbonic anhydrase targeting agents and methods of using same” (VisEn Medical, Inc., priority 2011, dated 2024)", "key": {"HeLa tumors [1]": {"tested_on": "HeLa tumors", "experiment": "Effect of acetazolamide treatment on carbonic anhydrase signal in HeLa tumor-bearing mice (FMT)", "assay_type": "in vivo", "conditions": "for accumulation in tumors as quantified by FMT (FIG. 5B): 24 hours", "description": "HeLa tumor-bearing mice were randomized once their tumors reached the desired volume and injected i.v. with either C5 (2 nmoles). For competition studies, mice were injected with the acetazolamide (10 mg/kg) followed 60 minutes later by compound C5 (2 nmoles). Imaging was performed 24 hours after administration of the agents using the FMT 2500."}, "HeLa tumors [2]": {"tested_on": "HeLa tumors", "experiment": "Imaging of tumors in vivo using CA agents (planar reflectance and FMT)", "conditions": "NU/NU mice, bilateral HeLa tumors, 2 nmoles i.v., 24 hrs post-injection", "description": "In this experiment, NU/NU mice 6-8 weeks old (Charles River Laboratory, Wilmington, MA) were injected subcutaneously (s.c.) with about 2×10^6 HeLa cells bilaterally in each mammary fat pad. When tumors reached an approximate size of 3×3 mm, mice were injected intravenously (i.v.) with 2 nmoles of carbonic anhydrase agent C5 or nonbinding control agent D3 (5 mice/probe+2 mice/no probe as control) in 100 μL volume via tail vein. Imaging was conducted at 24 hrs post-injection using a Fluorescence Molecular Tomography system (VisEn Medical, Bedford, MA) that is commercially available."}, "HeLa tumors [3]": {"tested_on": "HeLa tumors", "experiment": "Detection of in vivo induction of hypoxia in mice with HeLa tumors (FRI of excised tumors)", "conditions": "2 nmol i.v., tumors excised and imaged by FRI 24 hours after injection", "description": "Female nu/nu mice at 4-5 weeks old, obtained from (Harlan Laboratory, Indianapolis, IN) were injected subcutaneously (s.c.) with HeLa cells (1.5×10^6 cells/site) in the mammary fat pads. Once tumors reached the desired volume of 600-700 mm^3 (measured with calipers using the formula volume mm^3=length×width^2/2), mice were grouped randomly (n=4-5 mice/group) for with some exposed to controlled hypoxic environmental conditions (8% oxygen) in a chamber with monitored oxygen levels. Control mice with matched tumor volumes were maintained under normal housing conditions. C5, (2 nmol) was injected intravenously to all mice at 24 hours after the initiation of the experiment. Hypoxic mice were placed back into the hypoxic chamber after the injection, and tumors were excised and imaged by fluorescence reflectance imaging (FRI) 24 hours following injection. FIGS. 6A-B show fluorescence images of the excised tumors from mice that were placed in normal air (left) and 8% 02 (right)."}, "[4]": {"experiment": "Biodistribution of i.v. administered compound in HeLa tumor bearing mice", "assay_type": "in vivo", "conditions": "2 nmoles i.v., 24 hr, excised tissues, reflectance mode", "description": "Female NU/NU mice 6-8 weeks old (Charles River Laboratory, Wilmington, MA) were injected subcutaneously (s.c.) with HeLa cells (5×10^6) in the first mammary fat pads. Once tumors reached the desired volume (measured with calipers using the formula volume mm^3=(length×width^2)/2), mice were injected i.v. with compound C5 (2 nmoles) or nonbinding control D3. Mice were sacrificed by carbon dioxide asphyxiation 24 hr later and certain tissues removed, rinsed with saline, blotted dry, and the imaged on a VisEn FMT 2500 using the reflectance mode. Regions of interest (ROIs) were drawn around each organ using the FMT Software and the mean fluorescence (reported as counts/energy) determined for each organ and normalized to the mean fluorescence in tumors taken to be 100%."}}, "data": [{"molecule": "CC1(C)C(/C=C/C(=C/C=C2/N(CCCS(=O)(=O)O)c3ccc4c(S(=O)(=O)O)cc(S(=O)(=O)O)cc4c3C2(C)C)c2ccc(C(=O)NCCC(=O)Nc3nnc(S(N)(=O)=O)s3)cn2)=[N+](CCCS(=O)(=O)[O-])c2ccc3c(S(=O)(=O)O)cc(S(=O)(=O)O)cc3c21", "note": "[Compound C5, 3-(2-((1E,3Z,5E)-5-(1,1-dimethyl-6,8-disulfo-3-(3-sulfopropyl)-1H-benzo[e]indol-2(3H)-ylidene)-3-(5-((3-oxo-3-((5-sulfamoyl-1,3,4-thiadiazol-2-yl)amino)propyl)carbamoyl)pyridin-2-yl)penta-1,3-dien-1-yl)-1,1-dimethyl-6,8-disulfo-1H-benzo[e]indol-3-ium-3-yl)propane-1-sulfonate]", "values": [{"measurement": "accumulation in tumors as quantified by FMT (FIG. 5B)", "setting": "HeLa tumors [1]; 2 nmoles i.v., no acetazolamide", "value": 116, "unit": "pmol"}, {"measurement": "accumulation in tumors as quantified by FMT (FIG. 5B)", "setting": "HeLa tumors [1]; acetazolamide 10 mg/kg 60 minutes before agent (2 nmoles i.v.)", "value": 39, "unit": "pmol"}, {"measurement": "tumor signal in tomographic images after acetazolamide compared to untreated animals (FIG. 5A)", "setting": "HeLa tumors [1]; acetazolamide 10 mg/kg 60 minutes before agent (2 nmoles i.v.), imaging at 24 hours", "value": "reduced signal"}, {"measurement": "less tumor signal in acetazolamide treated animals", "setting": "HeLa tumors [1]; acetazolamide 10 mg/kg 60 minutes before agent, versus untreated", "value": "approximately 66%"}, {"measurement": "tumor signal by planar reflectance and tomographic imaging", "setting": "HeLa tumors [2]", "value": "tumors can be imaged effectively"}, {"measurement": "uptake in excised tumors, hypoxic atmosphere (8% oxygen) versus normal air (FIGS. 6A-B)", "setting": "HeLa tumors [3]", "value": "significantly greater uptake"}, {"measurement": "tissue fluorescence (biodistribution), normalized to tumors (FIG. 4)", "setting": "[4]", "value": "very low in most tissues with the high concentrations found in tumors, and lower concentrations accumulated in the kidneys"}]}]}
